Measured values from ChEMBL document CHEMBL2057110, “Investigation of the interaction between amodiaquine and human serum albumin by fluorescence spectroscopy and molecular modeling” (Eur J Med Chem, 2012).

What was measured:
Format in all cases: ADME
Conditions in all cases: isolated protein
Albumin [1] = biological target: T1, Albumin (Homo sapiens, UniProt P02768); assay: Binding affinity to human serum albumin assessed as Stern-Volmer association constant at pH 7.4 and 291K by spectrofluorimetry
Albumin [2] = biological target: T1, Albumin; assay: Binding affinity to human serum albumin assessed as modified Stern-Volmer association constant at pH 7.4 and 310K by spectrofluorimetry
Albumin [3] = biological target: T1, Albumin; assay: Apparent binding affinity to human serum albumin at pH 7.4 and 301K by spectrofluorimetry
Albumin [4] = biological target: T1, Albumin; assay: Binding affinity to human serum albumin assessed as Stern-Volmer association constant at pH 7.4 and 310K by spectrofluorimetry
Albumin [5] = biological target: T1, Albumin; assay: Apparent binding affinity to human serum albumin at pH 7.4 and 291K by spectrofluorimetry
Albumin [6] = biological target: T1, Albumin; assay: Binding affinity to human serum albumin assessed as modified Stern-Volmer association constant at pH 7.4 and 291K by spectrofluorimetry in presence of ibuprofen
Albumin [7] = biological target: T1, Albumin; assay: Binding affinity to human serum albumin assessed as Stern-Volmer association constant at pH 7.4 and 301K by spectrofluorimetry
Albumin [8] = biological target: T1, Albumin; assay: Apparent binding affinity to human serum albumin at pH 7.4 and 310K by spectrofluorimetrysis
Albumin [9] = biological target: T1, Albumin; assay: Binding affinity to human serum albumin assessed as modified Stern-Volmer association constant at pH 7.4 and 291K by spectrofluorimetry in presence of warfarin

T1 sequence (P02768 whole entry): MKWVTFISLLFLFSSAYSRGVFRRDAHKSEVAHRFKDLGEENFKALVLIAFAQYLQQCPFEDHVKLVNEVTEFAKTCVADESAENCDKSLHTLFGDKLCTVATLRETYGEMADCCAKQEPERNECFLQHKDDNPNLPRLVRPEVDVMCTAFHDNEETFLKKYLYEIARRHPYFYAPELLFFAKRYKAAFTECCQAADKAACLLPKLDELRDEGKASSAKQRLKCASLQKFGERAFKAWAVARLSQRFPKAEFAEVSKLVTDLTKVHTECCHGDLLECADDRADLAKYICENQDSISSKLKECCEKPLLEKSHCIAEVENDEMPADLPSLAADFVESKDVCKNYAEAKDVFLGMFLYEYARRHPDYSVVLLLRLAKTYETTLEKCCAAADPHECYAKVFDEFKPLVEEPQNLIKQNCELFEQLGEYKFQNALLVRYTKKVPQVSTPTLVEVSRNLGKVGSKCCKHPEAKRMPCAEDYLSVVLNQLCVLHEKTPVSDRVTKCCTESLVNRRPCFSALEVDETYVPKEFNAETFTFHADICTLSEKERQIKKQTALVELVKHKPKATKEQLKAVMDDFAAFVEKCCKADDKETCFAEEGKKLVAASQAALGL

CCN(CC)Cc1cc(Nc2ccnc3cc(Cl)ccc23)ccc1O.Cl
KSV (Albumin [1]): 76600 M⁻¹
Ka (Albumin [2]): 45900 M⁻¹
Kb (Albumin [3]): 48600 M⁻¹
KSV (Albumin [4]): 48400 M⁻¹
Kb (Albumin [5]): 35000 M⁻¹
Ka (Albumin [6]): 114000 M⁻¹
KSV (Albumin [7]): 56200 M⁻¹
Kb (Albumin [8]): 67300 M⁻¹
Ka (Albumin [9]): 73100 M⁻¹
